The results in this text go back to patent US10221144B2, “Antibacterial compounds having broad spectrum of activity” (priority 2014, dated 2019).

Where two headings read alike, the source gives them in different places.

Holding throughout (type): biochemical
For one test, the target named is T1, E. coli DNA gyrase (Escherichia coli, UniProt P0AES4+P0AES6).
T1 construct: purchased Inspiralis, UK
Briefly: DNA gyrase supercoiling assay (E. coli). The settings on record: for inhibition at 50 µM: E. coli, conc. 50 μM, n/a = not active. Put shortly:
(§1)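 Relaxed pBR322 (0.5 μg) supercoiled by E. coli (2 U) or S. aureus (1 U) gyrase, 30 min at 37° C; compounds at single 200, 100 or 50 μM, duplicate. Supercoiled band quantified on ethidium-stained agarose gel, expressed as % inhibition vs DMSO control; IC50 by two-parameter exponential decay fit.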

Test [1] deals with T2, S. aureus Topoisomerase IV (Staphylococcus aureus, UniProt P0C1S7+P0C1U9).
T2 construct: purchased Inspiralis, UK
Briefly: Topoisomerase IV decatenation assay (S. aureus). The note with it: for inhibition at 50 µM: read-out: % inhibition Topo IV. Put shortly: (§2)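 Topo IV decatenation of kDNA (200 ng) with 0.5 U enzyme in HEPES-KOH pH 7.6 buffer containing 1 mM ATP and Mg acetate, 30 min at 37 °C. Single-concentration screen (200, 100 or 50 μM) in duplicate. Decatenated minicircles resolved on agarose, ethidium-stained band intensity expressed as % inhibition versus vehicle; IC50 from exponential-decay curve fit.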

In the next test the target is T3, E. coli Topoisomerase IV (Escherichia coli, UniProt P0AFI2+P20083).
T3 construct: purchased Inspiralis, UK
T3 sequence (P20083 whole entry): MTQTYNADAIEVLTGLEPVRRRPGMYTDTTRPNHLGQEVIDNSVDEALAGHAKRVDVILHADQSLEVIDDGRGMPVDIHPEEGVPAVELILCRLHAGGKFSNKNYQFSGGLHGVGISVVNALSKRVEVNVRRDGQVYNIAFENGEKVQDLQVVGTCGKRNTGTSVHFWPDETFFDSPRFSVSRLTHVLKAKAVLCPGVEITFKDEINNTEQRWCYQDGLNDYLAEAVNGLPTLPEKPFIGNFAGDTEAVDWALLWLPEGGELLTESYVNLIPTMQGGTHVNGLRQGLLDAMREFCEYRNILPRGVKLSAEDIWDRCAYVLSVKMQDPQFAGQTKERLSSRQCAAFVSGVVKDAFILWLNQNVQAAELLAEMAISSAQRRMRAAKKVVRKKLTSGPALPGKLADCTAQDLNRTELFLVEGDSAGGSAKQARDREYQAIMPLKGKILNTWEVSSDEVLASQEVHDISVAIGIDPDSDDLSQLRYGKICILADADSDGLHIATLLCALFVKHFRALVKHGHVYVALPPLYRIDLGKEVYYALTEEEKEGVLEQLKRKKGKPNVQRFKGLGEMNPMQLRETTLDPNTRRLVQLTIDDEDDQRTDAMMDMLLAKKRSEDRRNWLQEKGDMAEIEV
T3 sequence (P0AFI2 whole entry): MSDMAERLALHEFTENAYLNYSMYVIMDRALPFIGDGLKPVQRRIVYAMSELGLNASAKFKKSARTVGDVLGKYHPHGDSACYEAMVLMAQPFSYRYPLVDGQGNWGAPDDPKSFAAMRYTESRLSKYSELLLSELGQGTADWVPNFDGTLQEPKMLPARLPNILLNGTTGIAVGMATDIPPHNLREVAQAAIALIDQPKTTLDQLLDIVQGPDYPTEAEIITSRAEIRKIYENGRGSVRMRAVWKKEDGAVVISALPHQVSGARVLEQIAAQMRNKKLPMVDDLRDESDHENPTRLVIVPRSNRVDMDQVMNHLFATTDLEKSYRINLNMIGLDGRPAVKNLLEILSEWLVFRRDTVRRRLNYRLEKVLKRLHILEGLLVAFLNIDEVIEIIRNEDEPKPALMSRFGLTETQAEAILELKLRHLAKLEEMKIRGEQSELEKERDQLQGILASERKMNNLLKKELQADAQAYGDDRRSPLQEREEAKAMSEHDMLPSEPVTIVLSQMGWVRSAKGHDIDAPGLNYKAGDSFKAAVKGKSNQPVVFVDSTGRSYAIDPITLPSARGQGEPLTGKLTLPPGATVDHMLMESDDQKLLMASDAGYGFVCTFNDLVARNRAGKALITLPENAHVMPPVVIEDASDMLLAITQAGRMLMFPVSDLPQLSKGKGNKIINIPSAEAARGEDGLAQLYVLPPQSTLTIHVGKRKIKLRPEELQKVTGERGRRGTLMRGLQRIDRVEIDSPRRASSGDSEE
Briefly: Topoisomerase IV decatenation assay (E. coli). The note with it: for inhibition at 50 µM: E. coli, conc. 50 μM, n/a = not active, read-out: % inhibition Topo IV. Put shortly: as §2

For another test, the target named is T4, S. aureus DNA gyrase (Staphylococcus aureus, UniProt P0A0K8+P20831).
T4 construct: purchased Inspiralis, UK
T4 sequence (P0A0K8 whole entry): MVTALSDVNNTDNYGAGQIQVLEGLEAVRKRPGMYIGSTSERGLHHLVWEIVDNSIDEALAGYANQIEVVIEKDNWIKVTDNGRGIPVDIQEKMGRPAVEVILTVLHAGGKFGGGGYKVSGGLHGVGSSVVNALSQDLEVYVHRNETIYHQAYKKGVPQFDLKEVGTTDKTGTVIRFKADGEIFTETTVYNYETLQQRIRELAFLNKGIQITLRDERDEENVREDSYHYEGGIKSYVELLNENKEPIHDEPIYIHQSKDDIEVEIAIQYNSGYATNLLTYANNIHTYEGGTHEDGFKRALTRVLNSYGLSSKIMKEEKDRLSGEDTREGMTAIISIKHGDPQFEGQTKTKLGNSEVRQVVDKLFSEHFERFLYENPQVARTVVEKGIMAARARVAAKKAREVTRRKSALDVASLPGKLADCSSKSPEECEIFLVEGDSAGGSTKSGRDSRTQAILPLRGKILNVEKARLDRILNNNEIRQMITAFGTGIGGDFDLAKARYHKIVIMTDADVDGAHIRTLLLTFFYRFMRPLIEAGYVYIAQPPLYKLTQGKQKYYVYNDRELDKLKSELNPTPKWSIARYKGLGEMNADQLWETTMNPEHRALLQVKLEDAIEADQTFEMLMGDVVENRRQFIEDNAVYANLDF
T4 sequence (P20831 whole entry): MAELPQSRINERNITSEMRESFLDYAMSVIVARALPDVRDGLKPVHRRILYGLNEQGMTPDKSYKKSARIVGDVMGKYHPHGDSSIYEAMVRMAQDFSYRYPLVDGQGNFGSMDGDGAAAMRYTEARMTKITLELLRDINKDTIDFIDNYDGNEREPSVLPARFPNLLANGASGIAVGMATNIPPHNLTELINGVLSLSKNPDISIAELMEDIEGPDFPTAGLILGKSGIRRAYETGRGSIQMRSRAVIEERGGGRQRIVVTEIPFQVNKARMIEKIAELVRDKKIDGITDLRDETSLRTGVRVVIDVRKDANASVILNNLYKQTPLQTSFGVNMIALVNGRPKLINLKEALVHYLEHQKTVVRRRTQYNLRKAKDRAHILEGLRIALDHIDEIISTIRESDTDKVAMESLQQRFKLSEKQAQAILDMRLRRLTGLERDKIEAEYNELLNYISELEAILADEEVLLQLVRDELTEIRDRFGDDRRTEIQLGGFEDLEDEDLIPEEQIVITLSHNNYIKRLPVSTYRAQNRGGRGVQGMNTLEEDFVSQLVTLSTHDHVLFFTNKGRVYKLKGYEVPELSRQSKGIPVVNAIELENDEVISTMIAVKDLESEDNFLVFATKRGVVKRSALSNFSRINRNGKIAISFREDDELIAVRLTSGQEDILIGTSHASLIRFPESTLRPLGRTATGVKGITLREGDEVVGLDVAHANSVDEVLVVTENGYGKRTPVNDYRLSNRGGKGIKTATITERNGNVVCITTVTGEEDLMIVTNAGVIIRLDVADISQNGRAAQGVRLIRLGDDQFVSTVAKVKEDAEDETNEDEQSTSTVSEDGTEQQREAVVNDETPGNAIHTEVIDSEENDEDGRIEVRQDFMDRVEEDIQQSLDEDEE
Briefly: DNA gyrase supercoiling assay (S. aureus). The settings on record: for inhibition at 50 µM: S. aureus, conc. 50 μM, n/a = not active. Summed up: as §1

The mark [2] stands for this setting: S. aureus, conc. 50 μM, n/a = not active.

T1 sequence (P0AES4 whole entry, one chain of several): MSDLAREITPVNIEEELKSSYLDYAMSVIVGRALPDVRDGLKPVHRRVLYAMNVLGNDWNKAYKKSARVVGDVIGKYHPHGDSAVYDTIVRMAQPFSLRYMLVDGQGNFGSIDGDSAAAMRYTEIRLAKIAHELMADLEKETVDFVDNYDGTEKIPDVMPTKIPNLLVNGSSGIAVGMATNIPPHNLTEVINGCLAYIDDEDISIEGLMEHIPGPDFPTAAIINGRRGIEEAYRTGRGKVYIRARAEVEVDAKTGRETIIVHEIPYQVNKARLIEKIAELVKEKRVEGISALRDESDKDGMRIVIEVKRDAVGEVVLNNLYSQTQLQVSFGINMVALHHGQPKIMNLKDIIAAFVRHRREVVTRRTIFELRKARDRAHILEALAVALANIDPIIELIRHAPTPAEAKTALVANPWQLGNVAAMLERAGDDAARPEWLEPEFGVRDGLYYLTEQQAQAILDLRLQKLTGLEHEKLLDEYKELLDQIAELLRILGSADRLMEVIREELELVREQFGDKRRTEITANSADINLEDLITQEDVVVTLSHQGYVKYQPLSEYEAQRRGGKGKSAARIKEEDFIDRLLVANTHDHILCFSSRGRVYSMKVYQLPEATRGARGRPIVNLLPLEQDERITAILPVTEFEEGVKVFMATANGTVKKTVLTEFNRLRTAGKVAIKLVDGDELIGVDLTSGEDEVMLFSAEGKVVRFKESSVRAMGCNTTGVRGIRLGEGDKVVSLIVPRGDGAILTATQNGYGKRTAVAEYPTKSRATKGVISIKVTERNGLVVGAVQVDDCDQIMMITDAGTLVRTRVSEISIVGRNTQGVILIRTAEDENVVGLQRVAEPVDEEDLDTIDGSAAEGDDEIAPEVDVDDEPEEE

Regarding `COc1ccc2nccc(N3CCC(NCc4cc5c([nH]4)c(=O)oc4ccc(F)cc45)CC3)c2n1` [Compound 188, 8-fluoro-2-({[1-(6-methoxy-1,5-naphthyridin-4-yl)piperidin-4-yl]amino}methyl)[1]benzopyrano[3,4-b]pyrrol-4(3H)-one], the half-inhibitory concentration (IC50) at E. coli DNA gyrase amounted to 90 nM; in test [1], 200 nM; against E. coli Topoisomerase IV, 300 nM; against S. aureus DNA gyrase it was 15 nM. Further, the inhibition at 50 µM against E. coli DNA gyrase worked out at 100%; in test [1] (setting [2]), 98%; at E. coli Topoisomerase IV, 92%; on S. aureus DNA gyrase it was 97%.
As to `COc1ccc2ncc(F)c(N3CCC(NCc4cc5c([nH]4)c(=O)oc4ccc(F)cc45)CC3)c2n1` [Compound 192, 8-fluoro-2-({[1-(3-fluoro-6-methoxy-1,5-naphthyridin-4-yl)piperidin-4-yl]amino}methyl)[1]benzopyrano[3,4-b]pyrrol-4(3H)-one], the IC50 at E. coli DNA gyrase was found to be 80 nM; in test [1], 100 nM; against E. coli Topoisomerase IV, 130 nM; against S. aureus DNA gyrase it was 17 nM. The inhibition at 50 µM was determined as 70% against E. coli DNA gyrase, 76% in test [1] (setting [2]), 37% at E. coli Topoisomerase IV and 88% against S. aureus DNA gyrase.
For the molecule `COc1ccc2ncc(C#N)c(N3CCC(NCc4cc5c([nH]4)c(=O)oc4ccc(F)cc45)CC3)c2n1` [Compound 195, 4-(4-{[(8-fluoro-4-oxo-3,4-dihydro[1]benzopyrano[3,4-b]pyrrol-2-yl)methyl]amino}piperidin-1-yl)-6-methoxy-1,5-naphthyridine-3-carbonitrile], the IC50 against E. coli DNA gyrase is 140 nM; in test [1], 100 nM; at E. coli Topoisomerase IV, 300 nM; on S. aureus DNA gyrase it was 100 nM. For the same molecule, the inhibition at 50 µM came out at 99% on E. coli DNA gyrase, 100% in test [1] (setting [2]), 100% on E. coli Topoisomerase IV and 100% on S. aureus DNA gyrase.
As for `O=c1oc2ccc(F)cc2c2cc(CNC3CCN(c4nccc5nccnc45)CC3)[nH]c12` [Compound 196, 8-fluoro-2-({[1-(pyrido[3,4-b]pyrazin-5-yl)piperidin-4-yl]amino}methyl)[1]benzopyrano[3,4-b]pyrrol-4(3H)-one], the half-maximal inhibitory concentration (IC50) turned out to be 790 nM against E. coli DNA gyrase, 390 nM in test [1], 2540 nM on E. coli Topoisomerase IV and 160 nM against S. aureus DNA gyrase. Besides, the inhibition at 50 µM came out at 85% on E. coli DNA gyrase, 89% in test [1], 100% at E. coli Topoisomerase IV and 83% against S. aureus DNA gyrase.
Take `COc1cnc2ccnc(N3CCC(NCc4cc5c([nH]4)c(=O)oc4ccc(F)cc45)CC3)c2n1` [Compound 199, 8-fluoro-2-({[1-(3-methoxypyrido[3,4-b]pyrazin-5-yl)piperidin-4-yl]amino}methyl)[1]benzopyrano[3,4-b]pyrrol-4(3H)-one]: the inhibition at 50 µM on E. coli DNA gyrase turned out to be 90%; in test [1], 100%; at E. coli Topoisomerase IV it was 100%; on S. aureus DNA gyrase, 92%.
As to `COc1ccc2cc(F)nc(N3CCN(CC(O)CNc4cc(=O)oc5ccc(F)cc45)CC3)c2c1` (stereo not shown) [Compound 203, 6-fluoro-4-({3-[4-(3-fluoro-7-methoxyisoquinolin-1-yl)piperazin-1-yl]-2-hydroxypropyl}amino)-2H-1-benzopyran-2-one], the inhibition at 50 µM (against E. coli DNA gyrase; in test [1]; on E. coli Topoisomerase IV; on S. aureus DNA gyrase) was 100% in each case.
